This note sets out measurements from US20250042886A1, “BIS(HETERO)ARYL THIOETHER OXADIAZINES AS FUNGICIDAL COMPOUNDS” (Bayer Aktiengesellschaft, priority 2021, published 2025).

The subject of series [1] is Colletotrichum lindemuthianum. Kind of series: In vivo preventive test on Colletotrichum lindemuthianum (leaf spot on bean). The settings on record: 168 h, 500 ppm of active ingredient, sprayed on young bean plants 24 h before inoculation, evaluated 7 days after inoculation, read-out: efficacy. How it is done: B-4. […] The active ingredients were made soluble and homogenized in a mixture of Dimethyl sulfoxide/Acetone//Tween® 80 and then diluted in water to the desired concentration. The young plants of bean were treated by spraying the active ingredient prepared as described above. Control plants were treated only with an aqueous solution of Acetone/Dimethyl sulfoxide/Tween® 80. After 24 hours, the plants were contaminated by spraying the leaves with an aqueous suspension of Colletotrichum lindemuthianum spores.

Series [2] in a line: Measurement of Log P values by HPLC on reversed phase columns (EEC directive 79/831 Annex V.A8). The series is classed as physicochemical. The settings on record: Table 1, compounds of formula (I); method [a]: LC-UV, acidic range, 0.1% formic acid in water and acetonitrile.
For series [3], the system named is Botrytis cinerea. Kind of series: In vivo preventive test on Botrytis cinerea (grey mould). Conditions: 500 ppm of active ingredient, sprayed on young gherkin or cabbage plants 24 h before inoculation, evaluated 4 to 5 days after inoculation, read-out: efficacy. A digest of the protocol:
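Compounds in DMSO/acetone/Tween 80 were diluted in water and sprayed onto young gherkin or cabbage plants; controls got solvent only. After 24 h, leaves were sprayed with an aqueous Botrytis cinerea spore suspension.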

Series [4] has as its system Colletotrichum lindemuthianum. Kind of series: Colletotrichum lindemuthianum in vitro cell test. The settings on record: 144 h, liquid culture, 6 days incubation, read-out: efficacy (inhibition of fungal growth); for inhibition at 20 ppm: 20 ppm of active ingredient; for inhibition at 50 µM: 50 μMol/l of active ingredient. The series is classed as cell-based. The gist of the method: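 C. lindemuthianum spores in liquid glucose–peptone–yeast extract medium were exposed to compounds dissolved in DMSO. After 6 days, mycelial growth was measured by absorbance, and inhibition was calculated against compound-free control wells.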

Another series relates to Alternaria brassicae. Kind of series: In vivo preventive test on Alternaria brassicae (leaf spot on radish or cabbage). Conditions: 500 ppm of active ingredient, sprayed on young radish or cabbage plants 24 h before inoculation, evaluated 3 to 4 days after inoculation, read-out: efficacy. How it is done: B-1. […] The active ingredients were made soluble and homogenized in a mixture of Dimethyl sulfoxide/Acetone//Tween® 80 and then diluted in water to the desired concentration. The young plants of radish or cabbage were treated by spraying the active ingredient prepared as described above. Control plants were treated only with an aqueous solution of Acetone/Dimethyl sulfoxide/Tween® 80. After 24 hours, the plants were contaminated by spraying the leaves with an aqueous suspension of Alternaria brassicae spores.

The next series relates to Pyricularia oryzae. Briefly: microbe, parasite or virus in culture. The series is classed as cell-based. The settings on record: 120 h, read-out: efficacy (inhibition of fungal growth), 50 μMol/l of active ingredient, liquid culture, 5 days incubation.
For a further series, the system named is Alternaria alternata. Kind of series: Alternaria alternata in vitro cell test. The series is classed as cell-based. The settings on record: 120 h, 50 μMol/l of active ingredient, liquid culture, 5 days incubation, read-out: efficacy (inhibition of fungal growth). How it is done: B-5. Alternaria alternata In Vitro Cell Test • Solvent: DMSO • Culture medium: 14.6 g anhydrous D-glucose (VWR), 7.1 g Mycological Peptone (Oxoid), 1.4 g granulated Yeast Extract (Merck), QSP 1 liter • Inoculum: spores suspension Fungicides were solubilized in DMSO and the solution used to prepare the required range of concentrations. […] A spore suspension of A. alternata was prepared and diluted to the desired spore density. Fungicides were evaluated for their ability to inhibit spore germination and mycelium growth in liquid culture assay. The compounds were added in the desired concentration to the culture medium with spores. After 5 days incubation, fungi-toxicity of compounds was determined by spectrometric measurement of mycelium growth. Inhibition of fungal growth was determined by comparing the absorbance values in wells containing the fungicides with the absorbance in control wells without fungicides.

The test system of another series is Fusarium culmorum. Briefly: Fusarium culmorum in vitro cell test. Conditions: 120 h, 50 μMol/l of active ingredient, liquid culture, 5 days incubation, read-out: efficacy (inhibition of fungal growth). The series is classed as cell-based. The gist of the method:
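Spores in liquid mineral-salts/saccharose medium exposed to compounds (DMSO ≤1% final) for 5 days. Mycelium growth measured spectrometrically, with inhibition derived from absorbance relative to fungicide-free control wells.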

The subject of series [5] is Botrytis cinerea. Kind of series: Botrytis cinerea in vitro cell test. The series is classed as cell-based. Conditions: 144 h, 50 μMol/l of active ingredient, liquid culture, 6 days incubation, read-out: efficacy (inhibition of fungal growth). A digest of the protocol: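 Compounds from DMSO stocks added at a range of concentrations to a defined mineral-salt/sucrose liquid medium inoculated with B. cinerea spores. After 6 days' incubation, mycelium growth was read by absorbance; inhibition of germination and growth was calculated against fungicide-free control wells.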

In another series the test system is Pyrenophora teres. Briefly: Pyrenophora teres in vitro cell test. The series is classed as cell-based. The settings on record: 144 h, 50 μMol/l of active ingredient, liquid culture, 6 days incubation, read-out: efficacy (inhibition of fungal growth). The gist of the method:
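Compounds in DMSO were added to P. teres spore suspensions in glucose/peptone/yeast-extract liquid medium, testing inhibition of spore germination and mycelium growth. After 6 days, mycelium growth was read by absorbance. Inhibition was calculated relative to fungicide-free control wells.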

For `FC(F)(F)c1ccc(Sc2nnc(Cl)cc2C2=NOC[C@@H](Cc3ccc(Cl)cc3Cl)N2)cc1` (racemic) [Compound I-003], the pest or weed control at 500 ppm in series [1] fell in the range of 70 to 79%; in the series on Botrytis cinerea [3] it was 90 to 100%. Also, the chromatographic logP in series [2] amounted to 4.93.
With `Cc1ccc(C[C@H]2CON=C(c3nc(C)ncc3Sc3cccc(OC(F)(F)F)c3)N2)c(Cl)c1` (racemic) [Compound I-021], the inhibition at 20 ppm in [4] was in the range of 70 to 79%. The pest or weed control at 500 ppm in series [1] was 70 to 79%. In addition, the chromatographic logP in series [2] is 5.46.
In the case of `Cc1ccc(C[C@H]2CON=C(c3nc(C)ncc3Sc3cccc(OC(F)(F)F)c3)N2)c(C)c1` (racemic) [Compound I-026], the inhibition at 20 ppm in [4] lay within 70 to 79%. Besides, the pest or weed control at 500 ppm in series [1] was 80 to 89%. This compound also showed a chromatographic logP in series [2] of 5.39.
In the case of `Cc1ccc(C[C@@H]2CON=C(c3cc(Cl)nnc3Sc3ccc(C(F)(F)F)cc3)N2)c(C)c1` (racemic) [Compound I-027], the pest or weed control at 500 ppm (in [1]; in the series with Alternaria brassicae) was 90 to 100% throughout. The chromatographic logP in series [2] worked out at 5.31.
For `Cc1ccc([C@H]2CON=C(c3c(Sc4cccc(F)c4)nnc4ccccc34)N2)s1` (racemic) [Compound I-042], the inhibition at 50 µM (in series [4]; in the series with Pyricularia oryzae; in the series on Alternaria alternata; in the series on Fusarium culmorum; in the series with Botrytis cinerea [5]; in the series with Pyrenophora teres) was 90 to 100% each time. Further, the pest or weed control at 500 ppm fell in the range of 70 to 79% in series [1], 90 to 100% in the series on Alternaria brassicae and 90 to 100% with Botrytis cinerea [3]. The same compound gave a chromatographic logP in series [2] of 3.27.
With `Cc1ccc([C@@H]2CON=C(c3c(Sc4cccc(C(F)(F)F)c4)nnc(C)c3C)N2)s1` (racemic) [Compound I-044], the inhibition at 50 µM in [4] was 90 to 100%; in the series on Pyricularia oryzae it was 80 to 89%; in the series with Alternaria alternata, 70 to 79%; in the series on Botrytis cinerea [5] it was 90 to 100%; in the series with Pyrenophora teres it was 90 to 100%. In addition, the pest or weed control at 500 ppm (in series [1]; with Botrytis cinerea [3]) was 90 to 100% in each case. In addition, the chromatographic logP in series [2] came out at 3.36.
As for `Cc1cccc(Sc2nnc3ccccc3c2C2=NOC[C@H](c3ccc(C)s3)N2)c1` (racemic) [Compound I-062], the inhibition at 50 µM in series [4] was 90 to 100%; in the series with Pyricularia oryzae, 80 to 89%; in the series on Alternaria alternata, 90 to 100%; in the series on Fusarium culmorum, 90 to 100%; in the series on Botrytis cinerea [5] it was 90 to 100%; in the series on Pyrenophora teres, 90 to 100%. The pest or weed control at 500 ppm (in series [1]; in the series with Alternaria brassicae; in the series on Botrytis cinerea [3]) was 90 to 100% throughout. The compound further yielded a chromatographic logP in series [2] of 3.47.
Regarding `Cc1cccc(Sc2nnc3ccccc3c2C2=NOC[C@H](c3ccc(C)s3)N2)n1` (racemic) [Compound I-066], the inhibition at 50 µM is 90 to 100% in series [4], 70 to 79% with Pyricularia oryzae, 70 to 79% in the series with Fusarium culmorum and 90 to 100% in the series on Botrytis cinerea [5]. Besides, the results for the pest or weed control at 500 ppm (in series [1]; in the series on Alternaria brassicae; with Botrytis cinerea [3]) were 70 to 79%, 80 to 89% and 90 to 100%, respectively. Moreover, the chromatographic logP in [2] turned out to be 2.69.
Consider `Cc1cc([C@H]2CON=C(c3c(Sc4ccccc4)nnc(C)c3C)N2)c(C)s1` (racemic) [Compound I-069], for which the inhibition at 50 µM lay in the range of 90 to 100% in series [4]; 80 to 89% with Pyricularia oryzae; 80 to 89% with Alternaria alternata; 90 to 100% in the series with Fusarium culmorum; 90 to 100% with Botrytis cinerea [5]. For the same compound, the pest or weed control at 500 ppm in [1] is 70 to 79%; with Alternaria brassicae, 80 to 89%; in the series on Botrytis cinerea [3], 90 to 100%. This compound also yielded a chromatographic logP in series [2] of 3.03.
As for `Cc1cccc(Sc2nnc(C)c(C)c2C2=NOC[C@H](c3cc(C)sc3C)N2)c1` (racemic) [Compound I-078], the inhibition at 50 µM was 90 to 100% in series [4]; 80 to 89% with Pyricularia oryzae; 80 to 89% in the series with Alternaria alternata; 80 to 89% with Fusarium culmorum; 90 to 100% with Botrytis cinerea [5]; 90 to 100% in the series on Pyrenophora teres. For the same compound, the pest or weed control at 500 ppm (in [1]; in the series with Alternaria brassicae; in the series on Botrytis cinerea [3]) was 90 to 100% each time. The same compound yielded a chromatographic logP in [2] of 3.33.
Consider `COc1cccc(Sc2nnc(C)c(C)c2C2=NOC[C@@H](c3cc(C)sc3C)N2)c1` (racemic) [Compound I-079], for which the inhibition at 50 µM in [4] lay in the range of 90 to 100%; in the series with Pyricularia oryzae, 70 to 79%; in the series with Alternaria alternata it was 70 to 79%; in the series with Fusarium culmorum, 90 to 100%; with Botrytis cinerea [5] it was 90 to 100%; with Pyrenophora teres, 80 to 89%. Moreover, the pest or weed control at 500 ppm in series [1] lay within 80 to 89%; with Botrytis cinerea [3] it was 90 to 100%. In addition, the chromatographic logP in series [2] was found to be 3.11.
As for `COc1cccc(Sc2nnc3ccccc3c2C2=NOC[C@H](c3ccc(C)s3)N2)c1` (racemic) [Compound I-090], the inhibition at 50 µM was 90 to 100% in series [4], 90 to 100% in the series with Fusarium culmorum, 90 to 100% in the series on Botrytis cinerea [5] and 80 to 89% in the series on Pyrenophora teres. Further, the values for the pest or weed control at 500 ppm (in series [1]; in the series with Botrytis cinerea [3]) were 80 to 89% and 90 to 100%, respectively. Also, the chromatographic logP in series [2] came to 3.21.
For the compound `Cc1cccc(Sc2nnc(C)c(C)c2C2=NOCC(c3ccc(C)s3)N2)c1` (racemic) [Compound I-095, (5RS)-3-[5,6-dimethyl-3-(m-tolylsulfanyl)pyridazin-4-yl]-5-(5-methyl-2-thienyl)-5,6-dihydro-4H-1,2,4-oxadiazine], the inhibition at 50 µM in series [4] lay in the range of 90 to 100%; with Pyricularia oryzae, 70 to 79%; in the series on Fusarium culmorum, 70 to 79%; in the series with Botrytis cinerea [5], 90 to 100%. In addition, the figures for the pest or weed control at 500 ppm (in series [1]; with Alternaria brassicae; with Botrytis cinerea [3]) were 70 to 79%, 90 to 100% and 90 to 100%, respectively. Further, the chromatographic logP in series [2] was determined as 2.99.
Take `Cc1ccc([C@H]2CON=C(c3c(Sc4ccccc4)nnc4ccccc34)N2)s1` (racemic) [Compound I-097]: the inhibition at 50 µM lay within 90 to 100% in series [4]; 80 to 89% in the series on Pyricularia oryzae; 80 to 89% with Alternaria alternata; 80 to 89% in the series on Fusarium culmorum; 90 to 100% in the series on Botrytis cinerea [5]; 90 to 100% in the series on Pyrenophora teres. The same compound displayed a chromatographic logP in [2] of 3.14. The results for the pest or weed control at 500 ppm with Alternaria brassicae and in the series on Botrytis cinerea [3] were 80 to 89% and 90 to 100%, respectively.
As to `Cc1ccc([C@H]2CON=C(c3c(Sc4ccccc4C)nnc4ccccc34)N2)s1` (racemic) [Compound I-110], the pest or weed control at 500 ppm in [1] lay in the range of 70 to 79%; with Alternaria brassicae, 90 to 100%; in the series on Botrytis cinerea [3], 90 to 100%. The compound also registered a chromatographic logP in [2] of 3.45. The inhibition at 50 µM in the series on Botrytis cinerea [5] fell in the range of 90 to 100%.
